# From patent US9617253B2, “Molecules having pesticidal utility, and intermediates, compositions, and processes, related thereto” (Dow AgroSciences LLC, priority 2015, dated 2017)
# Columns and labels:
# [1] = test system: Beet Armyworm (Spodoptera exigua, LAPHEG); test: Bioassay on Beet Armyworm (BAW), 128-well diet tray assay; type: in vivo; conditions: 168 h, second instar BAW larvae, 50 μg/cm^2 on artificial diet, 25° C., five to seven days, average of eight wells, read-out: BAW % Control (or Mortality) rating
# Description: (§1) Certain molecules disclosed in this document were tested against BAW and CL using procedures described in the following examples. In the reporting of the results, the “BAW & CL Rating Table” was used (See Table Section).
# Bioassays on BAW were conducted using a 128-well diet tray assay. One to five second instar BAW larvae were placed in each well (3 mL) of the diet tray that had been previously filled with 1 mL of artificial diet to which 50 μg/cm^2 of the test molecule (dissolved in 50 μL of 90:10 acetone-water mixture) had been applied (to each of eight wells) and then allowed to dry. Trays were covered with a clear self-adhesive cover, vented to allow gas exchange, and held at 25° C., 14:10 light-dark for five to seven days. Percent mortality was recorded for the larvae in each well; activity in the eight wells was then averaged. The results are indicated in the table entitled “Table ABC: Biological Results” (See Table Section).
# [2] = test system: Cabbage Looper (Trichoplusia ni, TRIPNI); test: Bioassay on Cabbage Looper (CL), 128-well diet tray assay; type: in vivo; conditions: 168 h, second instar CL larvae, 50 μg/cm^2 on artificial diet, 25° C., five to seven days, average of eight wells, read-out: CL % Control (or Mortality) rating
# Description: as §1
# Bioassays on CL were conducted using a 128-well diet tray assay. One to five second instar CL larvae were placed in each well (3 mL) of the diet tray that had been previously filled with 1 mL of artificial diet to which 50 μg/cm^2 of the test molecule (dissolved in 50 μL of 90:10 acetone-water mixture) had been applied (to each of eight wells) and then allowed to dry. Trays were covered with a clear self-adhesive cover, vented to allow gas exchange, and held at 25° C., 14:10 light-dark for five to seven days. Percent mortality was recorded for the larvae in each well; activity in the eight wells was then averaged. The results are indicated in the table entitled “Table ABC: Biological Results” (See Table Section).
Compound,mortality at 50 µg/cm2 [1],mortality at 50 µg/cm2 [2]
"COc1cc(NC(=O)/N=C2\SCC(=O)N2c2cc(C)ccc2C(C)C)ccc1COc1ncn(-c2ccc(OC(F)(F)F)cc2)n1 [F4, (Z)-1-(3-(2-Isopropyl-5-methylphenyl)-4-oxothiazolidin-2-ylidene)-3-(3-methoxy-4-(((1-(4-(trifluoromethoxy)phenyl)-1H-1,2,4-triazol-3-yl)oxy)methyl)phenyl)urea]",50 to 100%,50 to 100%
"CCCc1ccc(C)cc1N1C(=O)CS/C1=N\C(=O)Nc1ccc(OCc2ncn(-c3ccc(OC(F)(F)F)cc3)n2)c(Cl)c1 [F39, (Z)-1-(3-Chloro-4-((1-(4-(trifluoromethoxy)phenyl)-1H-1,2,4-triazol-3-yl)methoxy)phenyl)-3-(3-(5-methyl-2-propylphenyl)-4-oxothiazolidin-2-ylidene)urea]",50 to 100%,50 to 100%
"COCc1ccc(C)cc1N1C(=O)CS/C1=N\C(=O)Nc1cc(F)c(OCc2ncn(-c3ccc(OC(F)(F)F)cc3)n2)c(F)c1 [F43, (Z)-1-(3,5-Difluoro-4-((1-(4-(trifluoromethoxy)phenyl)-1H-1,2,4-triazol-3-yl)methoxy)phenyl)-3-(3-(2-(methoxymethyl)-5-methylphenyl)-4-oxothiazolidin-2-ylidene)urea]",50 to 100%,50 to 100%
"Cc1ccc(C(C)C)c(N2C(=O)CS/C2=N\C(=O)Nc2ccc(OCc3ncn(-c4ccc(OC(F)(F)F)cc4)n3)cc2)c1 [F15, (Z)-1-(3-(2-Isopropyl-5-methylphenyl)-4-oxothiazolidin-2-ylidene)-3-(4-((1-(4-(trifluoromethoxy)phenyl)-1H-1,2,4-triazol-3-yl)methoxy)phenyl)urea]",50 to 100%,50 to 100%
"Cc1ccc(C(C)C)c(N2C(=O)CS/C2=N\C(=O)Nc2ccc(OCc3ncn(-c4ccc(OC(F)(F)F)cc4)n3)cc2Cl)c1 [F29, (Z)-1-(2-Chloro-4-((1-(4-(trifluoromethoxy)phenyl)-1H-1,2,4-triazol-3-yl)methoxy)phenyl)-3-(3-(2-isopropyl-5-methylphenyl)-4-oxothiazolidin-2-ylidene)urea]",50 to 100%,50 to 100%
"CCCc1ccc(C)cc1N1C(=O)CS/C1=N\C(=O)Nc1ccc(COc2ncn(-c3ccc(OC(F)(F)F)cc3)n2)c(F)c1 [F7, (Z)-1-(3-Fluoro-4-(((1-(4-(trifluoromethoxy)phenyl)-1H-1,2,4-triazol-3-yl)oxy)methyl)phenyl)-3-(3-(5-methyl-2-propylphenyl)-4-oxothiazolidin-2-ylidene)urea]",50 to 100%,50 to 100%
"CCCc1ccc(C)cc1N1C(=O)CS/C1=N\C(=O)Nc1ccc(OCc2ncn(-c3ccc(OC(F)(F)F)cc3)n2)cc1Cl [F30, (Z)-1-(2-Chloro-4-((1-(4-(trifluoromethoxy)phenyl)-1H-1,2,4-triazol-3-yl)methoxy)phenyl)-3-(3-(5-methyl-2-propylphenyl)-4-oxothiazolidin-2-ylidene)urea]",50 to 100%,50 to 100%
"CCCc1ccc(C)cc1N1C(=O)CS/C1=N\C(=O)Nc1cc(F)c(OCc2ncn(-c3ccc(OC(F)(F)F)cc3)n2)c(F)c1 [F42, (Z)-1-(3,5-Difluoro-4-((1-(4-(trifluoromethoxy)phenyl)-1H-1,2,4-triazol-3-yl)methoxy)phenyl)-3-(3-(5-methyl-2-propylphenyl)-4-oxothiazolidin-2-ylidene)urea]",50 to 100%,50 to 100%
"CCCc1ccc(C)cc1N1C(=O)CS/C1=N\C(=O)Nc1ccc(OCc2ncn(-c3ccc(OC(F)(F)F)cc3)n2)cc1C [F26, (Z)-1-(3-(5-Methyl-2-propylphenyl)-4-oxothiazolidin-2-ylidene)-3-(2-methyl-4-((1-(4-(trifluoromethoxy)phenyl)-1H-1,2,4-triazol-3-yl)methoxy)phenyl)urea]",50 to 100%,50 to 100%
"CCCc1ccc(C)cc1N1C(=O)CS/C1=N\C(=O)Nc1ccc(COc2ncn(-c3ccc(OC(F)(F)F)cc3)n2)c(OC)c1 [F10, (Z)-1-(3-Methoxy-4-(((1-(4-(trifluoromethoxy)phenyl)-1H-1,2,4-triazol-3-yl)oxy)methyl)phenyl)-3-(3-(5-methyl-2-propylphenyl)-4-oxothiazolidin-2-ylidene)urea]",0%,0%
"CCCc1ccc(C)cc1N1C(=O)CS/C1=N\C(=O)Nc1ccc(COc2ncn(-c3ccc(OC(F)(F)F)cc3)n2)cn1 [F13, (Z)-1-(3-(5-Methyl-2-propylphenyl)-4-oxothiazolidin-2-ylidene)-3-(5-(((1-(4-(trifluoromethoxy)phenyl)-1H-1,2,4-triazol-3-yl)oxy)methyl)pyridin-2-yl)urea]",50 to 100%,50 to 100%
"CCCc1ccc(C)cc1N1C(=O)CS/C1=N\C(=O)Nc1ccc(OCc2ncn(-c3ccc(OC(F)(F)F)cc3)n2)cc1F [F23, (Z)-1-(2-Fluoro-4-((1-(4-(trifluoromethoxy)phenyl)-1H-1,2,4-triazol-3-yl)methoxy)phenyl)-3-(3-(5-methyl-2-propylphenyl)-4-oxothiazolidin-2-ylidene)urea]",50 to 100%,50 to 100%
"COc1cc(OCc2ncn(-c3ccc(OC(F)(F)F)cc3)n2)ccc1NC(=O)/N=C1\SCC(=O)N1c1cc(C)ccc1C(C)C [F32, (Z)-1-(3-(2-Isopropyl-5-methylphenyl)-4-oxothiazolidin-2-ylidene)-3-(2-methoxy-4-((1-(4-(trifluoromethoxy)phenyl)-1H-1,2,4-triazol-3-yl)methoxy)phenyl)urea]",50 to 100%,50 to 100%
"Cc1ccc(C(C)C)c(N2C(=O)CS/C2=N\C(=O)Nc2ccc(OCc3ncn(-c4ccc(OC(F)(F)F)cc4)n3)c(Cl)c2)c1 [F38, (Z)-1-(3-Chloro-4-((1-(4-(trifluoromethoxy)phenyl)-1H-1,2,4-triazol-3-yl)methoxy)phenyl)-3-(3-(2-isopropyl-5-methylphenyl)-4-oxothiazolidin-2-ylidene)urea]",50 to 100%,50 to 100%
"Cc1ccc(C(C)C)c(N2C(=O)CS/C2=N\C(=O)Nc2ccc(OCc3ncn(-c4ccc(OC(F)(F)F)cc4)n3)nc2)c1 [F44, (Z)-1-(3-(2-Isopropyl-5-methylphenyl)-4-oxothiazolidin-2-ylidene)-3-(6-((1-(4-(trifluoromethoxy)phenyl)-1H-1,2,4-triazol-3-yl)methoxy)pyridin-3-yl)urea]",50 to 100%,50 to 100%
"CCCc1ccc(C)cc1N1C(=O)CS/C1=N\C(=O)Nc1ccc(OCc2ncn(-c3ccc(OC(F)(F)F)cc3)n2)cc1OC [F33, (Z)-1-(2-Methoxy-4-((1-(4-(trifluoromethoxy)phenyl)-1H-1,2,4-triazol-3-yl)methoxy)phenyl)-3-(3-(5-methyl-2-propylphenyl)-4-oxothiazolidin-2-ylidene)urea]",50 to 100%,50 to 100%
"Cc1cc(N2C(=O)CS/C2=N\C(=O)Nc2ccc(COc3ncn(-c4ccc(OC(F)(F)F)cc4)n3)cc2F)c(C(C)C)cc1F [F12, (Z)-1-(3-(4-Fluoro-2-isopropyl-5-methylphenyl)-4-oxothiazolidin-2-ylidene)-3-(2-fluoro-4-(((1-(4-(trifluoromethoxy)phenyl)-1H-1,2,4-triazol-3-yl)oxy)methyl)phenyl)urea]",50 to 100%,50 to 100%
"COCc1ccc(C)cc1N1C(=O)CS/C1=N\C(=O)Nc1ccc(OCc2ncn(-c3ccc(OC(F)(F)F)cc3)n2)c(F)c1 [F37, (Z)-1-(3-Fluoro-4-((1-(4-(trifluoromethoxy)phenyl)-1H-1,2,4-triazol-3-yl)methoxy)phenyl)-3-(3-(2-(methoxymethyl)-5-methylphenyl)-4-oxothiazolidin-2-ylidene)urea]",50 to 100%,50 to 100%
"COCc1ccc(C)cc1N1C(=O)CS/C1=N\C(=O)Nc1ccc(OCc2ncn(-c3ccc(OC(F)(F)F)cc3)n2)c(Cl)c1 [F40, (Z)-1-(3-Chloro-4-((1-(4-(trifluoromethoxy)phenyl)-1H-1,2,4-triazol-3-yl)methoxy)phenyl)-3-(3-(2-(methoxymethyl)-5-methylphenyl)-4-oxothiazolidin-2-ylidene)urea]",50 to 100%,50 to 100%
"COCc1ccc(C)cc1N1C(=O)CS/C1=N\C(=O)Nc1ccc(COc2ncn(-c3ccc(OC(F)(F)F)cc3)n2)c(OC)c1 [F11, (Z)-1-(3-Methoxy-4-(((1-(4-(trifluoromethoxy)phenyl)-1H-1,2,4-triazol-3-yl)oxy)methyl)phenyl)-3-(3-(2-(methoxymethyl)-5-methylphenyl)-4-oxothiazolidin-2-ylidene)urea]",0%,0%
